Assay results reported in publication PMC9030691, “Toxicokinetics of β-Amanitin in Mice and In Vitro Drug–Drug Interaction Potential” (Pharmaceutics, 2022).
Entries after “also recorded” stand apart in the source; their conditions may differ. Read-outs that look alike come from different tables or passages of the source.

Assays:
Assay type in all cases: in vitro ADME
OCT2 = biological target: T1, OCT2 (Homo sapiens, UniProt O15244); experiment: Uptake of amanitins into HEK293-OCT2 cells; conditions: 50 μM amanitin, 5 min, 37 °C, HBSS, 20 min preincubation, with and without cimetidine, LC-HRMS, n = 3
T1 construct: expressed in transfected cells; host or cells: HEK293
T1 sequence (O15244 1-555): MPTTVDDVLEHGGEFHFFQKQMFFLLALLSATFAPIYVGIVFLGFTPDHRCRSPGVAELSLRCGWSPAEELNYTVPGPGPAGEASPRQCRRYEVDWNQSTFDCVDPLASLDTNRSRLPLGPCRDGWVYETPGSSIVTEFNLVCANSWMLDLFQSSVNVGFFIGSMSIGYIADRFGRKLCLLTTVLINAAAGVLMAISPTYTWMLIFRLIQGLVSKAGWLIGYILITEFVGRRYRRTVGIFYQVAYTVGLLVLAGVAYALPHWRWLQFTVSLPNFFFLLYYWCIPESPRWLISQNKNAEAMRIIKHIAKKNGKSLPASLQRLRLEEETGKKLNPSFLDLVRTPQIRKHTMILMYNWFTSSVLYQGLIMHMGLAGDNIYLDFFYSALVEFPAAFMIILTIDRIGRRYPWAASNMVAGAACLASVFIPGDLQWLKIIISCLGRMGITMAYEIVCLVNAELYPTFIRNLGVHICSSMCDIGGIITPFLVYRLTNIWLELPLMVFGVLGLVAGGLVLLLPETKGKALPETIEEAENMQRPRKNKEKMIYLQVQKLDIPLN
Description: (§1) HEK293 cells overexpressing OCT2, MATE2-K, OAT1, OAT3, OATP1B1, and OATP1B3 transporters and HEK293-control cells were maintained in a humidified atmosphere of 5% CO2 at 37 °C in DMEM supplemented with 10% FBS and 5 mM non-essential amino acids. In the case of HEK293-OATP1B1, -OATP1B3, and MATE2-K cells, 2 mM sodium butyrate was added to the culture medium to enhance transport activity. Cells were seeded at 2 × 10^5 cells/well in poly-D-lysine-coated 24-well plates. After 24 h, the growth medium was discarded, and attached cells were washed with HBSS and preincubated for 20 min in HBSS at 37 °C. Stock solutions of α- and β-amanitin and representative inhibitors of transporters were diluted in HBSS to make the final concentration: cimetidine 1 mM (for OCT2), cimetidine 100 μM (for MATE2-K), probenecid 100 μM (for OAT1 and OAT3), and rifampin 100 μM (for OATP1B1 and OATP1B3). Uptake of 50 μM α- and β-amanitin was measured in the absence and presence of representative inhibitors for 5 min at 37 °C. Plates were placed immediately on ice, and cells were then washed twice with 1 mL of ice-cold HBSS. Residual HBSS was removed thoroughly from the plates. Subsequently, 150 μL of 80% methanol containing IS was added to each sample well, and the cell plates were shaken gently for 20 min at 4 °C. The remaining steps were the same as described for plasma sample preparation.

OATP1B1 = biological target: T2, OATP1B1 (Homo sapiens, UniProt Q9Y6L6); experiment: Uptake of amanitins into HEK293-OATP1B1 cells; conditions: 50 μM amanitin, 5 min, 37 °C, HBSS, 20 min preincubation, with and without rifampin 100 μM, LC-HRMS, n = 3
T2 construct: expressed in transfected cells; host or cells: HEK293
T2 sequence (Q9Y6L6 whole entry): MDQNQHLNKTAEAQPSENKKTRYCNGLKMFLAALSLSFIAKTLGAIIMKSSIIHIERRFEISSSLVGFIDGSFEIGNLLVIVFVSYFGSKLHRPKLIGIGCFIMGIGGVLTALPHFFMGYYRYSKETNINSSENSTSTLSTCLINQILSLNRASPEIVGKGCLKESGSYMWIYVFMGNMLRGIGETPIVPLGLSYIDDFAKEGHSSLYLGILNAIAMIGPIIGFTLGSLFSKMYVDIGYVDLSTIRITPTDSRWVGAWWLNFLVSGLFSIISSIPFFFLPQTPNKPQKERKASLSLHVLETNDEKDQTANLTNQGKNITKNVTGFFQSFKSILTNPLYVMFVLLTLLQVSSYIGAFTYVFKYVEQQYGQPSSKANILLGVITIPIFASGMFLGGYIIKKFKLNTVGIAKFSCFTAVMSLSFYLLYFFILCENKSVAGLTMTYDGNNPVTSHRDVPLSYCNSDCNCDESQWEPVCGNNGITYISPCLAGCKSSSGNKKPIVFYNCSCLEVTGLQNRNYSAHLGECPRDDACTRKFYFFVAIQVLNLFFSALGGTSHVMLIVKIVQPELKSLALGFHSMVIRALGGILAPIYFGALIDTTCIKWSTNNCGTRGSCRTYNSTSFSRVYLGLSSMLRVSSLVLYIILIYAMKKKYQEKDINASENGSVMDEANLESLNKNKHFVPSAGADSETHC
Description: as §1

CYP2A6 = biological target: T3, CYP2A6 (Homo sapiens, UniProt P11509); experiment: CYP2A6 inhibition in human liver microsomes; conditions: ultrapooled human liver microsomes 0.2 mg/mL, 2.5 μM coumarin, β-amanitin 0.1–100 μM, pH 7.4, 37 °C, 15 min, LC-MS/MS, n = 3, read-out: IC50, CYP2A6 coumarin 7-hydroxylase
T3 construct: from tissue; host or cells: ultrapooled human liver microsomes
T3 sequence (P11509 whole entry): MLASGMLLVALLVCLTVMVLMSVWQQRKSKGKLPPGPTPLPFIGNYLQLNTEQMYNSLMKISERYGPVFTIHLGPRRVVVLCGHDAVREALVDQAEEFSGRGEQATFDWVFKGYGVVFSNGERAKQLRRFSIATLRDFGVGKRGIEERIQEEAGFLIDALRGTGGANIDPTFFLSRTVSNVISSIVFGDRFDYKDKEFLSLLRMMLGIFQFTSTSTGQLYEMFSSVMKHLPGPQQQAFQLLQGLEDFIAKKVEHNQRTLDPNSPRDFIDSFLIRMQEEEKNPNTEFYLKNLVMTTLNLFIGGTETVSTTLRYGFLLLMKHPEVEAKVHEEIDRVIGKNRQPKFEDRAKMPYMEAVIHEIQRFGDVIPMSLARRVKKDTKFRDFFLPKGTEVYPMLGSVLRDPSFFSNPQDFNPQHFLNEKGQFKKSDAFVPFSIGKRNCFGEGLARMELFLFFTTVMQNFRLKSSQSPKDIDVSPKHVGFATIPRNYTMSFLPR
Description: β-amanitin inhibition (IC50 values) of CYP1A2, CYP2A6, CYP2B6, CYP2C8, CYP2C9, CYP2C19, CYP2D6, and CYP3A4 enzyme activities in HLMs were evaluated using LC-MS/MS and CYP substrates as previously described. Each incubation mixture was made up to a volume of 100 μL including HLMs (0.2 mg/mL), 50 mM potassium phosphate buffer (pH 7.4), 1.0 mM NADPH, 10 mM magnesium chloride, various concentrations of β-amanitin (0.1–100 μM), a cocktail of seven CYP probe substrates (50 μM phenacetin for CYP1A2, 2.5 μM coumarin for CYP2A6, 2 μM amodiaquine for CYP2C8, 10 μM diclofenac for CYP2C9, 100 μM [S]-mephenytoin for CYP2C19, 5 μM bufuralol for CYP2D6, and 2.5 μM midazolam for CYP3A4 in acetonitrile), or 50 μM bupropion for CYP2B6. The reactions were initiated with NADPH followed by incubation in a shaking water bath at 37 °C for 15 min with or without 30 min preincubation with NADPH. Reactions were stopped with 50 μL of ice-cold methanol containing ^13C2, ^15N-acetaminophen and d9-1′-hydroxybufuralol (ISs). Incubation mixtures were centrifuged at 13,000× g for 8 min at 4 °C. An aliquot (5 μL) of the supernatant from the reaction mixture was analyzed by the previous LC-MS/MS method.

With `CC[C@H](C)[C@@H]1NC(=O)CNC(=O)[C@@H]2Cc3c([nH]c4cc(O)ccc34)[S@+]([O-])C[C@H](NC(=O)CNC1=O)C(=O)N[C@@H](CC(=O)O)C(=O)N1C[C@H](O)C[C@H]1C(=O)N[C@@H]([C@@H](C)[C@@H](O)CO)C(=O)N2` [β-amanitin] the “Uptake into HEK293-OCT2 cells compared with HEK293 control cells (transport substrate)” value (OCT2) was “not involved in the active transport”, the “Uptake into HEK293-OATP1B1 cells compared with HEK293 control cells (transport substrate)” value (OATP1B1) was “significantly increased; also recorded: substrate” and the IC50 (CYP2A6; with 30 min NADPH preincubation) was 80.1 µM. The IC50 (CYP2A6; without NADPH preincubation) was 93.9 µM.
In the case of α-amanitin [reference compound], the “Uptake into HEK293-OCT2 cells compared with HEK293 control cells (transport substrate)” value (OCT2) is reported as “not involved in the active transport” and the “Uptake into HEK293-OATP1B1 cells compared with HEK293 control cells (transport substrate)” value (OATP1B1) is reported as “significantly increased”.
